In paper PMC9352670 (2022):

System: Dm-HS-1 TTC ∆ s.c. (DNA, aptamer, no side-chain at 22 (codon 2 TTC); others as HFNAP: fluorophenyl at 19; allylamine at 25, 37; alcohol at 28, 34, 49; phenol at 31, 46; cyclopentyl at 40; cyclopropyl at 43, 58; imidazole at 52, 55, 61) GAAAGCAGGACTGGAGATCGATTCTGGTGCTGTTGATCTCCGCCATTGTGCTCCTACCCTTCACAGACCGAACTAGAGCTT
Assay: microscale thermophoresis
Details: 5 mM KCl, 1 mM MgCl2, 1 mM CaCl2 added to HBS-P+; HBS-P+ buffer, 25 °C

COc1cccc2c1C(=O)c1c(O)c3c(c(O)c1C2=O)C[C@@](O)(C(C)=O)C[C@@H]3O[C@H]1C[C@H](N)[C@H](O)[C@H](C)O1
Kd: 0.0162 ± 0.0032 µM
